Activity calls are given as the source filed them. The rule behind the calls is not given here.
Test system: rodent lifetime carcinogenesis bioassay, tumor incidence TD50
Assay: carcinogenic potency in animals, long-term in vivo studies, CPDB compilation (AID 1745844)

Structure (SMILES): CCCCNC(=O)N(CCCC)N=O
- TD50 (rat, strain Donryu, females, in drinking water, site: all sites, lesion: leukemia, dosed 75 weeks, study length 75 weeks): 32 mg/kg/day
- TD50 (rat, strain Donryu, females, in drinking water, site: any site (literature study), lesion: several types, types named in the paper, dosed 75 weeks, study length 75 weeks): 2.67 mg/kg/day
- TD50 (rat, strain Donryu, females, in drinking water, site: liver, lesion: adenoma, dosed 75 weeks, study length 75 weeks): 303 mg/kg/day
- TD50 (rat, strain Donryu, females, in drinking water, site: mammary gland, lesion: adenocarcinoma, dosed 75 weeks, study length 75 weeks): 22.7 mg/kg/day
- TD50 (rat, strain Donryu, females, in drinking water, site: mammary tissue, wider than the gland, lesion: fibroadenoma, dosed 75 weeks, study length 75 weeks): 2.23 mg/kg/day
- TD50 (rat, strain Donryu, females, in drinking water, site: mammary tissue, wider than the gland, lesion: several types, types named in the paper, dosed 75 weeks, study length 75 weeks): 4.28 mg/kg/day
- TD50 (rat, strain Donryu, females, in drinking water, site: uterus, lesion: several types, types named in the paper, dosed 75 weeks, study length 75 weeks): 15.3 mg/kg/day

Structure (SMILES): OCC(O)CCl (stereo not given)
- carcinogen call (rat, strain Charles River CD (Sprague-Dawley), females, by gavage, site: parathyroid, lesion: adenoma, dosed 72 weeks, study length 104 weeks): negative (inactive)
- TD50 (rat, strain Charles River CD (Sprague-Dawley), males, by gavage, site: parathyroid, lesion: adenoma, dosed 72 weeks, study length 104 weeks): 116 mg/kg/day

Structure (SMILES): CC1=C(C)C(=O)C(C(CCCCCC(=O)O)c2ccccc2)=C(C)C1=O (stereo not given)
- carcinogen call (rat, strain Fischer 344/Jcl, females, in feed, site: liver, lesion: one or several types, types not named, dosed 52 weeks, study length 52 weeks): negative (inactive)
- carcinogen call (rat, strain Fischer 344/Jcl, males, in feed, site: liver, lesion: one or several types, types not named, dosed 52 weeks, study length 52 weeks): negative (inactive)

Structure (SMILES): CC(C)NCC(O)c1ccc2ccccc2c1 (stereo not given)
- carcinogen call (mouse, strain CF-1, females, in feed, site: liver, lesion: one or several types, types not named, dosed 78 weeks, study length 78 weeks): negative (inactive)
- TD50 (mouse, strain CF-1, females, in feed, site: lung, lesion: adenoma, dosed 78 weeks, study length 78 weeks): 1300 mg/kg/day (inactive)
- TD50 (mouse, strain CF-1, males, in feed, site: liver, lesion: adenoma, dosed 78 weeks, study length 78 weeks): 1820 mg/kg/day (inactive)
- carcinogen call (mouse, strain CF-1, males, in feed, site: liver, lesion: carcinoma, dosed 78 weeks, study length 78 weeks): negative (inactive)
- TD50 (mouse, strain CF-1, males, in feed, site: lung, lesion: adenoma, dosed 78 weeks, study length 78 weeks): 931 mg/kg/day (inactive)
- TD50 (mouse, strain Not specified, females, in feed, site: thymus gland, lesion: one or several types, types not named, dosed 64 weeks, study length 64 weeks): 408 mg/kg/day
- TD50 (mouse, strain Not specified, males, in feed, site: thymus gland, lesion: one or several types, types not named, dosed 64 weeks, study length 64 weeks): 1930 mg/kg/day

Structure (SMILES): ClCC1CO1 (stereo not given)
- TD50 (mouse, strain Ha/ICR, females, i.p., site: lung, lesion: papillary tumor, dosed 64 weeks, study length 64 weeks): 28.9 mg/kg/day
- TD50 (rat, strain Sprague-Dawley, males, inhaled, site: nasal cavity, lesion: squamous-cell carcinoma, dosed 54 weeks, study length 136 weeks): 421 mg/kg/day
- TD50 (rat, strain Wistar, females, by gavage, site: forestomach, lesion: squamous-cell carcinoma, dosed 104 weeks, study length 104 weeks): 2.55 mg/kg/day
- carcinogen call (rat, strain Wistar, females, by gavage, site: liver, lesion: neoplastic nodule, dosed 104 weeks, study length 104 weeks): negative (inactive)
- TD50 (rat, strain Wistar, males, by gavage, site: any site (literature study), lesion: several types, types named in the paper, dosed 104 weeks, study length 104 weeks): 4.83 mg/kg/day
- TD50 (rat, strain Wistar, males, by gavage, site: forestomach, lesion: squamous-cell carcinoma, dosed 104 weeks, study length 104 weeks): 3.53 mg/kg/day
- carcinogen call (rat, strain Wistar, males, by gavage, site: liver, lesion: hepatocellular carcinoma, dosed 104 weeks, study length 104 weeks): negative (inactive)
- carcinogen call (rat, strain Wistar, males, by gavage, site: liver, lesion: neoplastic nodule, dosed 104 weeks, study length 104 weeks): negative (inactive)
- TD50 (rat, strain Wistar, males, by gavage, site: liver, lesion: one or several types, types not named, dosed 104 weeks, study length 104 weeks): 218 mg/kg/day (inactive)

Structure (SMILES): CCN(CC)C(=S)S
- TD50 (mouse, strain B6AKF1, females, oral dosing, site: lung, lesion: adenoma, dosed 76 weeks, study length 76 weeks): 607 mg/kg/day
- TD50 (mouse, strain B6AKF1, males, oral dosing, site: any site (literature study), lesion: several types, types named in the paper, dosed 76 weeks, study length 76 weeks): 403 mg/kg/day
- TD50 (mouse, strain B6AKF1, males, oral dosing, site: lung, lesion: adenoma, dosed 76 weeks, study length 76 weeks): 155 mg/kg/day
- carcinogen call (mouse, strain B6C3F1, females, in feed, site: any site (literature study), lesion: several types, types named in the paper, dosed 108 weeks, study length 108 weeks): negative (inactive)
- TD50 (mouse, strain B6C3F1, females, in feed, site: liver, lesion: hepatocellular adenoma + hepatocellular carcinoma + neoplastic nodule, dosed 108 weeks, study length 108 weeks): 27000 mg/kg/day
- TD50 (mouse, strain B6C3F1, females, in feed, site: lung, lesion: alveolar/bronchiolar adenoma + alveolar/bronchiolar carcinoma, dosed 108 weeks, study length 108 weeks): 4760 mg/kg/day
- carcinogen call (mouse, strain B6C3F1, males, in feed, site: any site (literature study), lesion: several types, types named in the paper, dosed 108 weeks, study length 108 weeks): negative (inactive)
- TD50 (mouse, strain B6C3F1, males, in feed, site: lung, lesion: alveolar/bronchiolar adenoma + alveolar/bronchiolar carcinoma, dosed 108 weeks, study length 108 weeks): 10300 mg/kg/day
- TD50 (mouse, strain B6C3F1, males, oral dosing, site: any site (literature study), lesion: several types, types named in the paper, dosed 76 weeks, study length 76 weeks): 71.4 mg/kg/day
- TD50 (mouse, strain B6C3F1, males, oral dosing, site: liver, lesion: hepatoma, dosed 76 weeks, study length 76 weeks): 68.7 mg/kg/day
- TD50 (mouse, strain B6C3F1, males, oral dosing, site: lung, lesion: adenoma, dosed 76 weeks, study length 76 weeks): 468 mg/kg/day
- carcinogen call (rat, strain Fischer 344, females, in feed, site: any site (literature study), lesion: several types, types named in the paper, dosed 104 weeks, study length 104 weeks): negative (inactive)
- carcinogen call (rat, strain Fischer 344, males, in feed, site: any site (literature study), lesion: several types, types named in the paper, dosed 104 weeks, study length 104 weeks): negative (inactive)

Structure (SMILES): CC1CN(N=O)CC(C)N1N=O (stereo not given)
- TD50 (hamster, strain Syrian Golden, males, by gavage, site: any site (literature study), lesion: several types, types named in the paper, dosed 35 weeks, study length 76 weeks): 0.932 mg/kg/day
- TD50 (hamster, strain Syrian Golden, males, by gavage, site: forestomach, lesion: papilloma, dosed 35 weeks, study length 76 weeks): 3.1 mg/kg/day
- TD50 (hamster, strain Syrian Golden, males, by gavage, site: liver, lesion: angiosarcoma, dosed 35 weeks, study length 76 weeks): 8.3 mg/kg/day
- TD50 (hamster, strain Syrian Golden, males, by gavage, site: lung, lesion: adenoma, dosed 35 weeks, study length 76 weeks): 6.04 mg/kg/day

Structure (SMILES): c1ccc2[nH]c(-c3cscn3)nc2c1
- TD50 (mouse, strain B6C3F1, males, in feed, site: liver, lesion: hepatocellular adenoma, dosed 52 weeks, study length 52 weeks): 390 mg/kg/day (inactive)
- carcinogen call (mouse, strain Crj: CD-1 (ICR), females, in feed, site: liver, lesion: one or several types, types not named, dosed 78 weeks, study length 78 weeks): negative (inactive)
- TD50 (mouse, strain Crj: CD-1 (ICR), females, in feed, site: lung, lesion: alveolar/bronchiolar adenoma, dosed 78 weeks, study length 78 weeks): 4880 mg/kg/day (inactive)
- carcinogen call (mouse, strain Crj: CD-1 (ICR), females, in feed, site: lung, lesion: alveolar/bronchiolar carcinoma, dosed 78 weeks, study length 78 weeks): negative (inactive)
- TD50 (mouse, strain Crj: CD-1 (ICR), females, in feed, site: urinary bladder, lesion: mesenchymal neoplasm, dosed 78 weeks, study length 78 weeks): 16300 mg/kg/day (inactive)
- carcinogen call (mouse, strain Crj: CD-1 (ICR), males, in feed, site: liver, lesion: hepatocellular adenoma, dosed 78 weeks, study length 78 weeks): negative (inactive)
- carcinogen call (mouse, strain Crj: CD-1 (ICR), males, in feed, site: liver, lesion: hepatocellular carcinoma, dosed 78 weeks, study length 78 weeks): negative (inactive)
- carcinogen call (mouse, strain Crj: CD-1 (ICR), males, in feed, site: lung, lesion: alveolar/bronchiolar adenoma, dosed 78 weeks, study length 78 weeks): negative (inactive)
- carcinogen call (mouse, strain Crj: CD-1 (ICR), males, in feed, site: lung, lesion: alveolar/bronchiolar carcinoma, dosed 78 weeks, study length 78 weeks): negative (inactive)
- TD50 (mouse, strain Crj: CD-1 (ICR), males, in feed, site: urinary bladder, lesion: transitional-cell papilloma, dosed 78 weeks, study length 78 weeks): 15000 mg/kg/day (inactive)
- carcinogen call (rat, strain F344/DuCrj, females, in feed, site: kidney, lesion: transitional-cell carcinoma, dosed 104 weeks, study length 104 weeks): negative (inactive)
- carcinogen call (rat, strain F344/DuCrj, females, in feed, site: liver, lesion: one or several types, types not named, dosed 104 weeks, study length 104 weeks): negative (inactive)
- TD50 (rat, strain F344/DuCrj, females, in feed, site: urinary bladder, lesion: transitional-cell papilloma, dosed 104 weeks, study length 104 weeks): 7640 mg/kg/day (inactive)
- TD50 (rat, strain F344/DuCrj, males, in feed, site: kidney, lesion: transitional-cell carcinoma, dosed 104 weeks, study length 104 weeks): 3050 mg/kg/day (inactive)
- carcinogen call (rat, strain F344/DuCrj, males, in feed, site: liver, lesion: one or several types, types not named, dosed 104 weeks, study length 104 weeks): negative (inactive)
- TD50 (rat, strain F344/DuCrj, males, in feed, site: preputial gland, lesion: adenoma, dosed 104 weeks, study length 104 weeks): 571 mg/kg/day
- carcinogen call (rat, strain F344/DuCrj, males, in feed, site: urinary bladder, lesion: transitional-cell papilloma, dosed 104 weeks, study length 104 weeks): negative (inactive)

Structure (SMILES): Cc1ccc(C)c(OCCCC(C)(C)C(=O)O)c1
- TD50 (mouse, strain Charles River CD1, females, in feed, site: any site (literature study), lesion: several types, types named in the paper, dosed 78 weeks, study length 78 weeks): 1690 mg/kg/day (inactive)
- TD50 (mouse, strain Charles River CD1, females, in feed, site: liver, lesion: hepatocellular adenoma, dosed 78 weeks, study length 78 weeks): 6600 mg/kg/day (inactive)
- TD50 (mouse, strain Charles River CD1, females, in feed, site: lung, lesion: several types, types named in the paper, dosed 78 weeks, study length 78 weeks): 11800 mg/kg/day (inactive)
- carcinogen call (mouse, strain Charles River CD1, males, in feed, site: any site (literature study), lesion: several types, types named in the paper, dosed 78 weeks, study length 78 weeks): negative (inactive)
- TD50 (mouse, strain Charles River CD1, males, in feed, site: liver, lesion: several types, types named in the paper, dosed 78 weeks, study length 78 weeks): 1660 mg/kg/day (inactive)
- carcinogen call (mouse, strain Charles River CD1, males, in feed, site: lung, lesion: several types, types named in the paper, dosed 78 weeks, study length 78 weeks): negative (inactive)
- carcinogen call (rat, strain Charles River CD (Sprague-Dawley), females, in feed, site: any site (literature study), lesion: several types, types named in the paper, dosed 104 weeks, study length 104 weeks): negative (inactive)
- TD50 (rat, strain Charles River CD (Sprague-Dawley), females, in feed, site: liver, lesion: hepatocellular carcinoma, dosed 104 weeks, study length 104 weeks): 504 mg/kg/day (inactive)
- TD50 (rat, strain Charles River CD (Sprague-Dawley), males, in feed, site: adrenal gland, lesion: pheochromocytoma, dosed 104 weeks, study length 104 weeks): 85.9 mg/kg/day
- TD50 (rat, strain Charles River CD (Sprague-Dawley), males, in feed, site: any site (literature study), lesion: benign tumor, dosed 104 weeks, study length 104 weeks): 196 mg/kg/day
- TD50 (rat, strain Charles River CD (Sprague-Dawley), males, in feed, site: any site (literature study), lesion: several types, types named in the paper, dosed 104 weeks, study length 104 weeks): 202 mg/kg/day
- TD50 (rat, strain Charles River CD (Sprague-Dawley), males, in feed, site: liver, lesion: hepatocellular carcinoma, dosed 104 weeks, study length 104 weeks): 247 mg/kg/day
- TD50 (rat, strain Charles River CD (Sprague-Dawley), males, in feed, site: pancreas, lesion: several types, types named in the paper, dosed 104 weeks, study length 104 weeks): 161 mg/kg/day
- TD50 (rat, strain Charles River CD (Sprague-Dawley), males, in feed, site: testis, lesion: interstitial-cell tumor, dosed 104 weeks, study length 104 weeks): 516 mg/kg/day

Reference: PubChem BioAssay AID1745844 (Carcinogenic Potency Database (CPDB), 2022)
